Holding throughout (experiment): growth of human tumour cells (NCI), 48 h
In test [1] the test system is DLD-1 colon.
The test system of test [2] is HOP-18 NSCLC.
Test [3] has as its system KM20L2 colon.
Test [4] concerns M19-MEL melanoma.
Test [5] relates to MDA-N.
The test system of test [6] is SNB-78 CNS.
The test system of test [7] is XF 498 CNS.
In test [8] the test system is LXFL 529 NSCLC.
For test [9], the system named is RXF-631 renal.

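Growth conditions: 96-well plates. Treatment: test compound, 48 hours, 5 concentrations. Analysis: linear interpolation between bracketing concentrations; unreached endpoints set to highest concentration. GI50 is the concentration that inhibits growth by half. TGI denotes the concentration required for complete inhibition of growth.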 Some results are limits rather than exact numbers.

As to `O=c1[nH]c(=O)n(C2CC(O)C(CS)O2)cc1F` (centres undefined), the TGI in [1], in [2], in test [3], in test [4], in [5] and in test [6] was over 100 µM throughout. For the same molecule, the TGI in test [7] is over 100 µM.

On to `CCC1(O)C(=O)OCc2c1cc1n(c2=O)Cc2cc3c(N)cccc3nc2-1` (centres undefined), for which the TGI in test [1] was over 56.4 µM; in test [2], 0.903 µM; in test [3], 20.5 µM; in [8], 4.71 µM; in [4], 1.29 µM; in [5] it was 2.57 µM. The TGI in test [9] was 1.62 µM; in test [6], over 51.7 µM; in test [7], 1.85 µM. Also, in [8], the GI50 was 0.307 µM.

On to `CCOC(=O)NC(=O)c1cn(CCCOC(=O)NCCCCCCNC(=O)OCCCn2c(=O)c(C(=O)NC(=O)OCC)cn(C)c2=O)c(=O)n(C)c1=O`, for which the TGI in [1], in [2], in test [3], in test [8], in test [4] and in test [9] was over 100 µM in each case.

Regarding `Cc1ccc(C(=O)/C=C/c2ccccc2O)c(C)c1`, the TGI in test [1] is over 100 µM; in test [3], over 100 µM; in test [8], over 100 µM; in test [4] it was 3.07 µM; in test [6], over 100 µM.

The molecule `O=C(O)C1C(C(=O)O)C(C(=O)O)C1C(=O)O` (centres undefined) yielded a TGI in test [5] of over 100 µM.

With `COC(=O)CSc1n[nH]c(-c2ccc(O)c([N+](=O)[O-])c2)n1`, the TGI in test [1], in [3], in test [8], in test [9] and in [7] was over 100 µM in each case.

Take `Cc1cc(NS(=O)(=O)c2ccc(NC(=O)c3cccc4c(=O)c5ccccc5[nH]c34)cc2)no1`: the TGI in [1] was over 100 µM; in [2] it was 28.2 µM; in [3], over 100 µM; in test [8], 89.2 µM; in test [4] it was over 100 µM; in test [6], over 100 µM. Moreover, the TGI in [7] amounted to 55.4 µM.

`CC(C)(C)C1=CC(=CC=C2C=CN(CCCCCCCCCCCO)C=C2)C=C(C(C)(C)C)C1=O`: the TGI in test [5] was 3.04 µM.

Take `CSc1ccc(/C=C2/C[N+](C)(C)C/C(=C/c3ccc(SC)cc3)C2=O)cc1`: the TGI in [1] was 22.8 µM; in test [2], 79.2 µM; in [4] it was 19.8 µM; in [9], over 100 µM; in test [6] it was over 100 µM; in test [7], 29.1 µM.

With `CCc1cccc(C)c1NC(C)=O`, the TGI in test [1], in [3], in test [8], in test [4], in [9] and in test [6] was over 100 µM throughout. The TGI in [7] is over 100 µM.

As for `CCCCCCCCCCC(O)C1CCC(C2CCC(C(O)CCCCC(O)CCCCCC(O)CC3=CC(C)OC3=O)O2)O1` (centres undefined), in test [5], the GI50 was over 25 µM and the TGI is over 25 µM.

Turning to `COc1ccc(OC)c(/C=C/NC=O)c1`, the TGI in test [1], in [2], in test [3], in test [8], in test [4] and in [6] was over 100 µM in each case. The TGI in test [7] is over 100 µM.

Regarding `CCN(CC)C(=O)C/C(C)=N/NC(=O)c1ccncc1`, the TGI in [1], in test [3], in test [8], in [6] and in test [7] was over 100 µM throughout.

For the molecule `Cc1ccc(N=NC(C(=O)c2ccccc2)C(=O)c2ccccc2)cc1`, the TGI was 76 µM in [1]; 60.9 µM in test [3]; over 100 µM in test [8]; 41.2 µM in test [4]; over 100 µM in test [9]; 54.6 µM in [7].

With `COC(=O)C(=O)C(C(=O)C=C(C)C)C(=O)C(=O)Nc1ccc(Cl)cc1C` (centres undefined), the TGI in test [1], in test [2], in test [3], in test [8], in [4] and in test [9] was over 100 µM each time.

With `N#CCCN(CCC#N)c1ccc(/C=C2\N=C(CN3C(=O)c4ccccc4C3=O)OC2=O)cc1`, the TGI in test [3], in test [8], in test [4], in test [9] and in test [7] was over 100 µM in each case.

The molecule `COc1ccc(-c2cc3c(nn2)-c2ccccc2C3=O)cc1` yielded a TGI in test [5] of over 10 µM.

In test [5], `CC(C)CC(N)C(=O)O` (centres undefined) gave a TGI of over 100 µM.

For the molecule `CC(C)=CC(=O)N1CCN(C(=O)C=C(C)C)CC1`, the TGI in test [1], in test [2], in test [3], in test [8], in test [4] and in test [9] was over 100 µM throughout. Also, the TGI in [6] and in test [7] was over 100 µM each time.

`CN(C)C(=S)/N=c1\ss/c(=N\C(=S)N(C)C)n1-c1ccc2c(c1)OCO2` showed a TGI in test [3] of over 100 µM.

As for `CC(=O)SCCC1c2[nH]c3ccccc3c2CCN1O` (centres undefined), the TGI in test [1], in test [2], in [3], in test [8] and in test [4] was over 100 µM in each case.

In the case of `COC(=O)C1=C(c2ccc3c(c2)OCO3)O[C@H](c2ccc3c(c2)OCO3)[C@H]1COC(C)=O`, the TGI in test [1], in test [2], in [3], in test [8], in [4] and in test [6] was over 100 µM throughout. Besides, the TGI in test [7] was over 100 µM.
